Test results taken from article PMC3823594, “Conformational Changes Underlying Pore Dilation in the Cytoplasmic Domain of Mammalian Inward Rectifier K^+ Channels” (PLoS ONE, 2013).
Changes are numbered by the printed parent chain.

Tests used:
Test in all cases: Two-electrode voltage clamp, ACh-dependent (m2R-dependent) K+ current activation
Format in all cases: cell-based
Kir3.2 WT = molecular target: T1, Kir3.2 WT (Mus musculus, UniProt P48542); conditions: Kir3.2 WT with porcine m2R in Xenopus oocytes; −120 mV; Hill equation fit
T1 sequence (P48542 1-425): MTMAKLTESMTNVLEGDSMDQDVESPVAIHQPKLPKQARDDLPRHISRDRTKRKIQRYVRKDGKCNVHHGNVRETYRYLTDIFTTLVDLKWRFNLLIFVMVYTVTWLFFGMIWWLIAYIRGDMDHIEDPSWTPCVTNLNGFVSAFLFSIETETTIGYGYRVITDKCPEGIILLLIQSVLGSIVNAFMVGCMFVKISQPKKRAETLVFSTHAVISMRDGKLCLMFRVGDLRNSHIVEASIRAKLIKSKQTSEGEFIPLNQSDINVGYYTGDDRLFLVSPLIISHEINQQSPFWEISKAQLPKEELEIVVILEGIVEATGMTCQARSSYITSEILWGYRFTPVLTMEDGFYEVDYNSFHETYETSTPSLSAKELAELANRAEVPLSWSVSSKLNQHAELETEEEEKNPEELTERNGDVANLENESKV
T1 sequence (P06199 1-466 partner): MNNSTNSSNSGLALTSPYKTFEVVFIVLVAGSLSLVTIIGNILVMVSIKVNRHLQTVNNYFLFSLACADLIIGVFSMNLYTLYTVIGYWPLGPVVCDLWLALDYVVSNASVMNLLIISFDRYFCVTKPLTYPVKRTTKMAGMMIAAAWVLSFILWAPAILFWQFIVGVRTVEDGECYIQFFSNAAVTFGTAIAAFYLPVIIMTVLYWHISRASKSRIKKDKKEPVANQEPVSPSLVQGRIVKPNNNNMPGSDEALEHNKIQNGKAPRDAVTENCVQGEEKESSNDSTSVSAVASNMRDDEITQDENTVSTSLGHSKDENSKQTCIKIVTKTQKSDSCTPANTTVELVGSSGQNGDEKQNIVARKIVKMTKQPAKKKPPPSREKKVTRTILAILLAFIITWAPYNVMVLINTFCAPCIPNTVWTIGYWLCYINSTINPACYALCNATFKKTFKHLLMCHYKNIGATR
From the text: (§1) The mouse Kir3.2d isoform was subjected to functional analyses. The amino acid numbers correspond to the longest mouse Kir3.2 isoform. Point mutations were introduced using the QuikChange site-directed mutagenesis kit (Stratagene, La Jolla, CA), and the presence of the mutations was confirmed by direct DNA sequencing. The care of Xenopus laevis was in accordance with the guideline of the Institute of Experimental Animal Sciences, Osaka University. The protocol was approved by the Animal Experiment Committee of Osaka University. The frogs were deeply anesthetized by immersing in 0.2% tricaine methanesulfonate for 20 min at 18°C. A portion of an ovary lobe was surgically removed and incubated with collagenase to remove follicular cells. The oocytes were injected with the cRNAs of Kir3.2 and porcine m2-muscarinic receptor (m2R), and maintained in modified Barth’s solution at 18°C with daily solution changes. Electrophysiological studies were undertaken 48–72 h later at room temperature (20–25°C). Two-electrode voltage-clamp recordings from oocytes were performed using a GeneClamp 500B amplifier (Axon Instruments, Sunnyvale, CA). […] The bath solution contained 40 mM KCl, 50 mM NaCl, 3 mM MgCl2, 0.15 mM niflumic acid, and 5 mM HEPES-KOH (pH 7.4). The currents were recorded in the absence or presence of various concentrations of acetylcholine (ACh). Ba^2+ (3 mM) was added at the end of the recording to estimate the endogenous leak current. The data are expressed as mean values ± standard error of the mean. For the quantitative estimation of ACh-dependent current responses of the wild-type (WT) and mutant channels, the current amplitudes at the end of test pulses at each ACh concentration ([ACh]) were fitted using the following equation:
(§2) I=min+[(max−min)/(1+(EC50/[ACh])^nH)]
(§3) where I is the current amplitude measured at the [ACh], n H is the Hill coefficient, and EC50 is the concentration that induces 50% of the maximal response. […] The values of n H and EC50 were calculated using a non-linear least-squares best fit (SigmaPlot 9; Systat Software). Statistical analyses were performed by one-way ANOVA with post-hoc tests.

Kir3.2 M313A = molecular target: T2, Kir3.2 M313A (Mus musculus, UniProt P48542, I313A); conditions: Kir3.2 M313A with porcine m2R in Xenopus oocytes; −120 mV; Hill equation fit
T2 sequence (P48542 19-425 I313A): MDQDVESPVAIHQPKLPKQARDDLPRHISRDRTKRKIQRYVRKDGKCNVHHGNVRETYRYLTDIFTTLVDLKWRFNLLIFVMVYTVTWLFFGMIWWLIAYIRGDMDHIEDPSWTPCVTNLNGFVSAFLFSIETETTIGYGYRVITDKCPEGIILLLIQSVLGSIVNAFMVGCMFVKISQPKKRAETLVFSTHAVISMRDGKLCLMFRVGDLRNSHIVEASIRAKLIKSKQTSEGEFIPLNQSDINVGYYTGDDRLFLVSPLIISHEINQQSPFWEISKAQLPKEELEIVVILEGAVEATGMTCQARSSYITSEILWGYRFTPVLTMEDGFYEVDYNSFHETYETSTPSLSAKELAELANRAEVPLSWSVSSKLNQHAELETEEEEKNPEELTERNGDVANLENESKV
T2 sequence (P06199 1-466 partner): T1 sequence (P06199 1-466 partner)
From the text: as §1, §2, §3

Kir3.2 E236G = molecular target: T3, Kir3.2 E236G (Mus musculus, UniProt P48542, E236G); conditions: Kir3.2 E236G with porcine m2R in Xenopus oocytes; −120 mV; Hill equation fit
T3 sequence (P48542 19-425 E236G): T2 sequence (P48542 19-425 I313A) with E218G, A295I
T3 sequence (P06199 1-466 partner): T1 sequence (P06199 1-466 partner)
From the text: as §1, §2, §3

In the case of `CC(=O)OCC[N+](C)(C)C` [ACh, acetylcholine], the Hill coefficient (Kir3.2 WT) is reported as 0.83 ± 0.06, the Hill coefficient (Kir3.2 M313A) is reported as 1.05 ± 0.08 and the Hill coefficient (Kir3.2 E236G) is reported as 1.10 ± 0.04.
